Measurements from US4477659A, “Cephalosporin compound” (Asahi Kasei Kogyo Kabushiki Kaisha, priority 1981, dated 1984).
Values after ≈ are worked out from the molar mass of the structure shown.

Legend:
[1] = Blood concentration, oral, rats, suspended in CMC aqueous solution (Example 17); assay type: in vivo, Male Wistar rats; settings: 50 mg/kg oral, rat; for concentration at 0.5 h / concentration at 1 h / concentration at 4 h: blood, read-out: Blood Concentration of the Compound
Procedure: (§1) Male Wistar rats weighing 180-250 g were fed with only water overnight. The next day the rats were orally administered with 50 mg/kg of a test compound which was dissolved in a buffer solution having pH of 7. The concentration of the compound in blood of the tested animals (one group consisting of 6 animals) was measured 0.5, 1, 2 and 4 hours after the administration by Bioassay method by using Bacillus subtilis ATCC 6633 strain as an indicator bacteria. In the measurement, an ordinary culture medium was employed, and the preparation of the standard solution and other method were carried out in according to Japanese Antibiotical Pharmaceutical Standards. Further, the concentration of the compound in blood was also measured by high performance liquid chromatography. The blood concentration shown below was an average value of each animal group.
The blood concentration of the compounds as obtained in Examples 12-15 and the compounds as obtained in the same manner as in Examples 3 and 12, respectively, was measured. The measurement was carried out in the same manner as Example 16 except that the test compound was suspended in a CMC aqueous solution instead of being dissolved in a buffer solution having pH of 7.

[2] = Absorption test, oral, rats, solution in buffer pH 7 (Example 16); assay type: in vivo, Male Wistar rats; settings: blood, 50 mg/kg oral, rat, average of 6, read-out: Blood Concentration of the Compound
Procedure: The absorption test of the compounds as obtained in Examples 1-11 were tested by the following method.
as §1

Staph. aureus MS 27 = experiment: MIC (Table 4); assay type: cell-based; settings: 10^8 cells/ml; unit assumed
Description: (§2) | MIC Value (10^8 cells/ml)

E. Coli NIHJ-JC2 = experiment: MIC (Table 4); assay type: cell-based; settings: 10^8 cells/ml; unit assumed
Description: as §2

[3] = system: Klebs. pneumoniae ATCC 10031; experiment: MIC (Table 4); assay type: cell-based; settings: 10^8 cells/ml; unit assumed
Description: as §2

Staph. aureus ATCC 6538p = experiment: MIC (Table 4); assay type: cell-based; settings: 10^8 cells/ml; unit assumed
Description: as §2

[4] = system: Salm enteritidis Gaertner; experiment: MIC (Table 4); assay type: cell-based; settings: 10^8 cells/ml; unit assumed
Description: as §2

E. Coli W3630 ps 3 = experiment: MIC (Table 4); assay type: cell-based; settings: 10^8 cells/ml; unit assumed
Description: as §2

Staph. aureus 0003 = experiment: MIC (Table 4); assay type: cell-based; settings: 10^8 cells/ml; unit assumed
Description: as §2

E. Coli W3630 = experiment: MIC (Table 4); assay type: cell-based; settings: 10^8 cells/ml; unit assumed
Description: as §2

7-β-[4-(2'-amino-2'-carboxy)ethylimidazol-2-yl-thioacetamido]-7α-methoxy-3-[(1-methyl-1H-tetrazol-5-yl) thiomethyl]-3-cephem-4-carboxylic acid ditert-butylcarboxymethyl ester [(19)]
Blood Concentration of the Compound ([1]; 0.5 hr.): 7200 ng/mL
Blood Concentration of the Compound ([1]; 1 hr.): 3900 ng/mL
Blood Concentration of the Compound ([1]; 4 hrs.): 1600 ng/mL

Cn1nnnc1SCC1=C(C(=O)O)N2C(=O)[C@@H](NC(=O)CSc3nc(C[C@H](N)C(=O)O)c[nH]3)[C@H]2SC1 [Example 2, 7-β-[4-(2'-amino-2'-carboxy)ethylimidazol-2-yl-thioacetamido]-3-[(1-methyl-1H-tetrazol-5-yl)thiomethyl]-3-cephem-4-carboxylic acid]
concentration at 0.5 h [2]: 4700 ng/mL
concentration at 1 h [2]: 2900 ng/mL
concentration at 2 h [2]: 2000 ng/mL
concentration at 4 h [2]: 1000 ng/mL

Cn1nncc1SCC1=C(C(=O)O)N2C(=O)[C@@H](NC(=O)CSc3nc(C[C@H](N)C(=O)O)c[nH]3)[C@H]2SC1 [Example 7, 7-β-[4-(2'-amino-2'-carboxy)ethylimidazol-2-yl-thioacetamido]-3-[(1-methyl-1H-1,2,3-triazole)thiomethyl]-3-cephem-4-carboxylic acid]
concentration at 0.5 h [2]: 4200 ng/mL
concentration at 1 h [2]: 2100 ng/mL
concentration at 2 h [2]: 700 ng/mL
concentration at 4 h [2]: 400 ng/mL

N[C@@H](Cc1c[nH]c(SCC(=O)N[C@@H]2C(=O)N3C(C(=O)O)=CCS[C@H]23)n1)C(=O)O [Example 11, 7-β-[4-(2'-amino-2'-carboxy)ethylimidazol-2-yl-thioacetamido]-3-cephem-4-carboxylic acid]
concentration at 0.5 h [2]: 8300 ng/mL
concentration at 1 h [2]: 7400 ng/mL
concentration at 2 h [2]: 4200 ng/mL
concentration at 4 h [2]: 1800 ng/mL

Cn1nnnc1SCC1=C(C(=O)O)N2C(=O)[C@@H](NC(=O)CSc3nc(C[C@H](NC=O)C(=O)O)c[nH]3)[C@H]2SC1 [Example 15, 7-β-[4-(2'-formamido-2'-carboxy)ethylimidazol-2-yl-thioacetamido]-3-[(1-methyl-1H-tetrazol-5-yl)thiomethyl]-3-cephem-4-carboxylic acid]
concentration at 0.5 h ([1]; 0.5 hr.): 3900 ng/mL
concentration at 1 h ([1]; 1 hr.): 2700 ng/mL
concentration at 4 h ([1]; 4 hrs.): 1700 ng/mL

N[C@@H](Cc1c[nH]c(SCC(=O)N[C@@H]2C(=O)N3C(C(=O)O)=C(CSc4nc[nH]n4)CS[C@H]23)n1)C(=O)O [Example 4, 7-β-[4-(2'-amino-2'-carboxy)ethylimidazol-2-yl-thioacetamido]-3-[(1,3,4-triazole)thiomethyl]-3-cephem-4-carboxylic acid]
concentration at 0.5 h [2]: 2100 ng/mL
concentration at 1 h [2]: 1200 ng/mL
concentration at 2 h [2]: 400 ng/mL
concentration at 4 h [2]: 100 ng/mL

N[C@@H](Cc1c[nH]c(SCC(=O)N[C@@H]2C(=O)N3C(C(=O)O)=C(Cl)CS[C@H]23)n1)C(=O)O [Example 10, 7-β-[4-(2'-amino-2'-carboxy)ethylimidazol-2-yl-thioacetamido]-3-chloro-3-cephem-4-carboxylic acid]
concentration at 0.5 h [2]: 7400 ng/mL
concentration at 1 h [2]: 5900 ng/mL
concentration at 2 h [2]: 3000 ng/mL
concentration at 4 h [2]: 1800 ng/mL

CC1=C(C(=O)O)N2C(=O)[C@@H](NC(=O)[C@H](N)c3ccccc3)[C@H]2SC1 [Cephalexin, reference compound]
MIC Value (Staph. aureus MS 27): 50 µg/mL (≈ 144 µM)
MIC Value (E. Coli NIHJ-JC2): > 100 µg/mL
MIC Value [3]: 25 µg/mL (≈ 72 µM)
MIC Value (Staph. aureus ATCC 6538p): 3.1 µg/mL (≈ 8.92 µM)
MIC Value [4]: > 100 µg/mL
MIC Value (E. Coli W3630 ps 3): > 100 µg/mL
MIC Value (Staph. aureus 0003): 50 µg/mL (≈ 144 µM)
MIC Value (E. Coli W3630): > 100 µg/mL

CO[C@@]1(NC(=O)CSc2nc(C[C@H](N)C(=O)O)c[nH]2)C(=O)N2C(C(=O)O)=C(COC(C)=O)CS[C@@H]21 [Example 12, 7-β-[4-(2'-amino-2'-carboxy)ethylimidazol-2-yl-thioacetamido]-7α-methoxy-3-acetoxymethyl-3-cephem-4-carboxylic acid]
concentration at 0.5 h ([1]; 0.5 hr.): 3900 ng/mL
concentration at 1 h ([1]; 1 hr.): 1700 ng/mL
concentration at 4 h ([1]; 4 hrs.): 400 ng/mL

N[C@@H](Cc1c[nH]c(SCC(=O)N[C@@H]2C(=O)N3C(C(=O)O)=C(CSc4cnn[nH]4)CS[C@H]23)n1)C(=O)O [Example 5, 7-β-[4-(2'-amino-2'-carboxy)ethylimidazol-2-yl-thioacetamido]-3-[(1,2,3-triazole)thiomethyl]-3-cephem-4-carboxylic acid]
concentration at 0.5 h [2]: 12400 ng/mL
concentration at 1 h [2]: 13700 ng/mL
concentration at 2 h [2]: 14300 ng/mL
concentration at 4 h [2]: 10200 ng/mL

CO[C@@]1(NC(=O)CSc2nc(C[C@H](N)C(=O)O)c[nH]2)C(=O)N2C(C(=O)O)=C(CSc3nnnn3C)CS[C@@H]21 [Example 13, 7-β-[4-(2'-amino-2'-carboxy)ethylimidazol-2-yl-thioacetamido]-7α-methoxy-3-[(1-methyl-1H-tetrazol-5-yl)thiomethyl]-3-cephem-4-carboxylic acid]
concentration at 0.5 h ([1]; 0.5 hr.): 4600 ng/mL
concentration at 1 h ([1]; 1 hr.): 3100 ng/mL
concentration at 4 h ([1]; 4 hrs.): 1100 ng/mL

Cn1nnnc1SCC1=C(C(=O)O)N2C(=O)[C@@H](NC(=O)CSc3nc(C[C@H](N)C(=O)O)c[nH]3)[C@H]2SC1 [drawing 11]
MIC Value (Staph. aureus MS 27): 12.5 µg/mL (≈ 22.5 µM)
MIC Value (E. Coli NIHJ-JC2): 25 µg/mL (≈ 45 µM)
MIC Value [3]: 12.5 µg/mL (≈ 22.5 µM)
MIC Value (Staph. aureus ATCC 6538p): 1.6 µg/mL (≈ 2.88 µM)
MIC Value [4]: 12.5 µg/mL (≈ 22.5 µM)
MIC Value (E. Coli W3630 ps 3): 25 µg/mL (≈ 45 µM)
MIC Value (Staph. aureus 0003): 12.5 µg/mL (≈ 22.5 µM)
MIC Value (E. Coli W3630): 25 µg/mL (≈ 45 µM)

CC(=O)NC(Cc1c[nH]c(SCC(=O)NC2C(=O)N3C(C(=O)O)=C(CSc4nnc(C)s4)CSC23)n1)C(=O)O (stereo not drawn) [(18), 7-β-[4-(2'-methylamido-2'-carboxy)ethylimidazol-2-yl-thioacetamido]-3-[2-(2-methyl-1,3,4-thiazolyl)thiomethyl]-3-cephem-4-carboxylic acid]
Blood Concentration of the Compound ([1]; 0.5 hr.): 10300 ng/mL
Blood Concentration of the Compound ([1]; 1 hr.): 11200 ng/mL
Blood Concentration of the Compound ([1]; 4 hrs.): 4900 ng/mL

COC1=C(C(=O)O)N2C(=O)[C@@H](NC(=O)CSc3nc(C[C@H](N)C(=O)O)c[nH]3)[C@H]2SC1 [Example 9, 7-β-[4-(2'-amino-2'-carboxy)ethylimidazol-2-yl-thioacetamido]-3-methoxy-3-cephem-4-carboxylic acid]
concentration at 0.5 h [2]: 8400 ng/mL
concentration at 1 h [2]: 6700 ng/mL
concentration at 2 h [2]: 3400 ng/mL
concentration at 4 h [2]: 1100 ng/mL

Cc1nnc(SCC2=C(C(=O)O)N3C(=O)[C@@H](NC(=O)CSc4nc(C[C@H](N)C(=O)O)c[nH]4)[C@H]3SC2)s1 [Example 3, 7-β-[4-(2'-amino-2'-carboxy)ethylimidazol-2-yl-thioacetamido]-3-[2-(2-methyl-1,3,4-thiazolyl)thiomethyl]-3-cephem-4-carboxylic acid]
concentration at 0.5 h [2]: 11300 ng/mL
concentration at 1 h [2]: 12400 ng/mL
concentration at 2 h [2]: 13700 ng/mL
concentration at 4 h [2]: 9400 ng/mL

CO[C@@]1(NC(=O)CSc2nc(C[C@H](N)C(=O)OCOC(C)=O)c[nH]2)C(=O)N2C(C(=O)OCOC(C)=O)=C(CSc3nnnn3C)CS[C@@H]21 [Example 14, 7-β-[4-(2'-amino-2'-carboxy)ethylimidazol-2-yl-thioacetamido]-7α-methoxy-3-[(1-methyl-1H-tetrazol-5-yl)thiomethyl]-3-cephem-4-carboxylic acid diacetoxymethyl ester]
concentration at 0.5 h ([1]; 0.5 hr.): 6800 ng/mL
concentration at 1 h ([1]; 1 hr.): 4100 ng/mL
concentration at 4 h ([1]; 4 hrs.): 2300 ng/mL

CC1=C(C(=O)O)N2C(=O)[C@@H](NC(=O)CSc3nc(C[C@H](N)C(=O)O)c[nH]3)[C@H]2SC1 [Example 8, 7-β-[4-(2'-amino-2'-carboxy)ethylimidazol-2-yl-thioacetamido]-3-methyl-3-cephem-4-carboxylic acid]
concentration at 0.5 h [2]: 14900 ng/mL
concentration at 1 h [2]: 11300 ng/mL
concentration at 2 h [2]: 7200 ng/mL
concentration at 4 h [2]: 4000 ng/mL

Cc1nnc(SCC2=C(C(=O)O)N3C(=O)[C@@H](NC(=O)CSc4nc(C[C@H](N)C(=O)O)c[nH]4)[C@H]3SC2)s1 [drawing 13]
MIC Value (Staph. aureus MS 27): 25 µg/mL (≈ 43.7 µM)
MIC Value (E. Coli NIHJ-JC2): 50 µg/mL (≈ 87.5 µM)
MIC Value [3]: 25 µg/mL (≈ 43.7 µM)
MIC Value (Staph. aureus ATCC 6538p): 1.6 µg/mL (≈ 2.8 µM)
MIC Value [4]: 50 µg/mL (≈ 87.5 µM)
MIC Value (E. Coli W3630 ps 3): 50 µg/mL (≈ 87.5 µM)
MIC Value (Staph. aureus 0003): 25 µg/mL (≈ 43.7 µM)
MIC Value (E. Coli W3630): 50 µg/mL (≈ 87.5 µM)

Cc1nnc(SCC2=C(C(=O)O)N3C(=O)[C@@H](NC(=O)CSc4nc(C[C@H](N)C(=O)O)c[nH]4)[C@H]3SC2)o1 [Example 6, 7-β-[4-(2'-amino-2'-carboxy)ethylimidazol-2-yl-thioacetamido]-3-[(2-methyl-1,3,4-oxadiazole)thiomethyl]-3-cephem-4-carboxylic acid]
concentration at 0.5 h [2]: 8000 ng/mL
concentration at 1 h [2]: 5300 ng/mL
concentration at 2 h [2]: 3600 ng/mL
concentration at 4 h [2]: 1000 ng/mL
